“Also recorded” adds a separate entry of the source. Bridge positions count the residues as written; N and C are the ends. Square brackets hold non-standard residues; d marks the D form. Peptide text beside a SMILES is read from it. hArg = N=C(N)NCCCC[C@H](N)C(=O)O; Mpa = O=C(O)CCS
B1: rsCD154: bacterially expressed recombinant human soluble CD154 (108 a.a-261 a.a.), 18-kDa protein (protein)
chain: ENSFEMQKGDQNPQIAAHVISEASSKTTSVLQWAEKGYYTMSNNLVTLENGKQLTVKRQGLYYIYAQVTFCSNREASSQAPFIASLCLKSPGRFERILLRAANTHSSAKPCGQQSIHLGGVFELQPGASVFVNVTDPSQVSHGTGFTSFGLLKL

How the values were obtained:
platelets = assay: Platelet surface expression of CD154 and release of thrombospondin; type: cell-based, human
CD154−/− mice = assay: Intravital microscopy thrombosis model of the mouse mesentery (FeCl3-injured arteriole); type: in vivo; conditions: single dose 26 μg/mouse, 5 to 10 minutes before arteriole injury
Protocol: The role of CD154 in thrombus formation was investigated using a model that compares wild type (WT) mice with CD154−/− mice that have impaired thrombosis. […] It was observed that the occlusion time is approximately twice as long in the CD 154−/− mouse as in wild type, apart from any other treatment effect.
In this example, the recombinant form of the soluble CD154 was infused into the CD154−/− mouse. Thrombus formation was evaluated using the model as described below.
To perform the investigation, the intravital microscopy thrombosis model of the mouse mesentery was used (Denis et al., PNAS, 95:9524-9, (1998)). The interactions of fluorescently-labeled platelets with a FeCl3-injured arteriolar vessel wall (shear rate ˜1300 s^−1) were analyzed. […]
Immediately after infusion of fluorescent platelets into mice of matching genotypes (4- to 5-weeks old C57BL6J and CD154−/−), animals were anesthetized with 2.5% tribromoethanol (0.15 mL/10 g). […] The shear rate (1000 to 1300 s^−1) was calculated using an optical Doppler velocimeter using known methods (see, e.g., Blood, November 2000). […]
Resting blood vessel was recorded for 2 minutes, then Ferric Chloride (30 μl of a 250-mM solution) was superfused, and video recording was resumed for another 40 minutes, or until full occlusion occurred and lasted for more than 10 seconds. […]

washed platelets = assay: β3 integrin tyrosine-759 phosphorylation staining of platelets spread on sCD154; type: cell-based, human; conditions: platelets spread on 10 μg/ml sCD154 coated cover slips
Protocol: Further, cover slips were coated with 10 μg/ml sCD154 for 2 hours at 37° C. and blocked with 5% crystalline BSA (Sigma chemicals). 100 μl of washed platelets at 10^7/ml were allowed to spread for 1 hour at 37° C. Non-adhered platelets were washed off with PBS. Adhered platelets were fixed with 4% para-formaldehyde and permeabilized with 0.5% Triton X-100 and 0.5% BSA in PBS. Permeabilized platelets were blocked with 3% goat serum and 2% BSA for 30 min. followed by incubation with a IIIa(p3) integrin cytoplasmic tyrosine-759 phospho-specific polyclonal antibody for 2 hours at room temperature. After 30 minutes washing with PBS containing 0.1% Triton X-100 and 0.5% BSA, the coverslips were incubated with a Alexa 596 goat anti-rabbit antibody and Alexa fluor 488 phalloidin for 40 min. followed by a brief wash and mounted on slides with VECTASHIELD (Vector laboratories, Burlingame, Calif.). Images were recorded using a digital camera, Hamamatsu, ORCA-ER attached to a Nikon fluorescence microscope, eclipse E1000 (Technical Instruments, San Francisco, Calif.). […] The staining was inhibited by β3 759 phospho-peptide confirming the specificity of the antibody (FIG. 11b).

| Molecule | thrombin- or TRAP-induced surface expression of CD154 (platelets) | TRAP-induced release of thrombospondin (platelets; data not shown) | thrombotic process (occlusion) in CD154−/− mice (CD154−/− mice) | staining with β3 integrin 759-tyrosine phosphospecific antibody (washed platelets) |
| --- | --- | --- | --- | --- |
| N=C(N)NCCCC[C@@H]1NC(=O)CCSSC[C@@H](C(N)=O)NC(=O)[C@@H]2CCCN2C(=O)[C@H](Cc2c[nH]c3ccccc23)NC(=O)[C@H](CC(=O)O)NC(=O)CNC1=O [eptifibatide] ([Mpa][hArg]GDWPC-NH2; disulfide 1-7) | did not affect; also recorded: unaffected | did not affect; also recorded: without affecting | – | – |
| B1 | – | – | reconstitute a normal thrombotic process | stained positive |
